Results: patent US11267812B2 (Mirati Therapeutics, Inc., priority 2016, dated 2022)

What follows are compounds tested against KRas G12C (Homo sapiens, UniProt P01116, C118S/C51S/C80L/G12C) (assay: KRas G12C Modification Assay (LCMS detection of covalent adduct)). Settings: 5 μM compound, 3 hours.
Type: binding
Method: A 10 μL aliquot of each protein solution was then transferred to a 384 well microtiter plate. Initial compound stocks were generated at fifty times their desired final assay concentration in DMSO.
Exemplary compounds of Formula (I) were diluted 25-fold into K-Ras Assay Buffer to a final of two times their final concentration. A 10 μL aliquot of each diluted compound solution was then added to each of the protein solutions in the microtiter plate to initiate reaction. […] At each time point, the reactions were quenched with 20 μL of a 25 mM acetic acid solution. […] Once all reactions were quenched, the plates were heat sealed and the samples were injected into a LC/MS system for data acquisition.
Samples were injected in their liquid phase onto a C-3 reverse phase column to remove assay buffer and prepare the samples for mass spectrometer. The proteins were eluted from the column using an acetonitrile gradient and fed directly into the mass analyzer. Initial raw data analysis took place in Agilent MassHunter software immediately post data acquisition.
Raw data analysis of the intact protein was exclusively a deconvolution of the multiple charge states of each protein in solution using a maximum entropy deconvolution provided in Mass Hunter. To minimize complexity, only the data over limited mass ranges were considered for analysis, with a minimum of one Dalton mass step intervals. The heights of all masses identified during raw data analysis were exported to be further analyzed in Spotfire® data analysis software.
Final data analysis was a multistep process in the Spotfire® data analysis software package. Briefly, each protein mass was calculated as a percent of the total signal of that sample, that percentage was then normalized to the percentage of signal of the protein in the absence of reactive compounds. Those normalized signals were reported as normalized percent of control (POC). […] Key: “A”≤25% POC; “B”>25% POC≤50% POC; “C”>50% POC and ND=not determined.

| Structure (SMILES) | POC (normalized percent of control, KRas G12C modification) |
| --- | --- |
| C=CC(=O)N1CCN(c2nc(OCCCN3CCOCC3)nc3c2CCN(c2cc(O)cc4sc(C)nc24)C3)CC1 [Example 166, 1-[4-[7-(6-hydroxy-2-methyl-1,3-benzothiazol-4-yl)-2-(3-morpholinopropoxy)-6,8-dihydro-5H-pyrido[3,4-d]pyrimidin-4-yl]piperazin-1-yl]prop-2-en-1-one] | B (“B”>25% POC≤50% POC) |
| C=CC(=O)N1CCN(c2nc(OCCN3CCC[C@@H](F)C3)nc3c2CCN(c2cc(O)cc4ccccc24)C3)CC1 [Example 207, (R)-1-(4-(2-(2-(3-fluoropiperidin-1-yl)ethoxy)-7-(3-hydroxynaphthalen-1-yl)-5,6,7,8-tetrahydropyrido[3,4-d]pyrimidin-4-yl)piperazin-1-yl)prop-2-en-1-one] | C (“C”>50% POC) |
| C=CC(=O)N1CCN(c2nc(OCCCN3C[C@@H](F)[C@@H](F)C3)nc3c2CCN(c2cc(O)cc4ccccc24)C3)CC1 [Example 208, 1-(4-(2-(3-((3R,4S)-3,4-difluoropyrrolidin-1-yl)propoxy)-7-(3-hydroxynaphthalen-1-yl)-5,6,7,8-tetrahydropyrido[3,4-d]pyrimidin-4-yl)piperazin-1-yl)prop-2-en-1-one] | C (“C”>50% POC) |
| C=CC(=O)N1CCN(c2nc(OCCCN3CCOCC3)nc3c2CCN(c2cc(O)cc4cccnc24)C3)CC1 [Example 205, 1-(4-(7-(6-hydroxyquinolin-8-yl)-2-(3-morpholinopropoxy)-5,6,7,8-tetrahydropyrido[3,4-d]pyrimidin-4-yl)piperazin-1-yl)prop-2-en-1-one] | C (“C”>50% POC) |
| C=CC(=O)N1CCN(c2nc(OCCCN3CCOCC3)nc3c2CCN(c2c(C)c(O)cc4ccccc24)C3)CC1 [Example 173, 1-(4-(7-(3-hydroxy-2-methylnaphthalen-1-yl)-2-(3-morpholinopropoxy)-5,6,7,8-tetrahydropyrido[3,4-d]pyrimidin-4-yl)piperazin-1-yl)prop-2-en-1-one] | C (“C”>50% POC) |
| C=CC(=O)N1CCN(c2nc(OCCCN3CCOCC3)nc3c2CCN(c2cc(O)cc4cc(C)[nH]c24)C3)CC1 [Example 167, 1-(4-(7-(5-hydroxy-2-methyl-1H-indol-7-yl)-2-(3-morpholinopropoxy)-5,6,7,8-tetrahydropyrido[3,4-d]pyrimidin-4-yl)piperazin-1-yl)prop-2-en-1-one] | B (“B”>25% POC≤50% POC) |
| C=CC(=O)N1CCN(c2nc(OCCN(C)C)nc3c2CCN(c2cc(O)cc4ccccc24)C3)CC1CCO (stereo not drawn) [Example 171, 1-(4-(2-(2-(dimethylamino)ethoxy)-7-(3-hydroxynaphthalen-1-yl)-5,6,7,8-tetrahydropyrido[3,4-d]pyrimidin-4-yl)-2-(2-hydroxyethyl)piperazin-1-yl)prop-2-en-1-one] | C (“C”>50% POC) |

The compounds below were run on Phospho-ERK in NCI-H358 cells expressing KRas G12C (assay: Cellular inhibition of KRas G12C by Phospho-ERK measurement in NCI-H358 cells). Settings: Homo sapiens, NCI-H358, 3 h, read-out: IC50 (pERK(Thr202/Tyr204) normalized with GAPDH).
Type: cell-based
Procedure, shortened: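 After 8–12 h attachment, NCI-H358 cells were treated with compounds for 3 h (0.5% DMSO final), fixed, methanol-permeabilized and immunostained. pERK(Thr202/Tyr204) was read by infrared imaging and normalized to GAPDH as percent of DMSO control. IC50 came from a 4-parameter fit.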

| Structure (SMILES) | IC50 [µM] |
| --- | --- |
| C=CC(=O)N1CCN(c2nc(OC[C@@H]3CCCN3C)nc3c2CCN(c2cc(O)cc4ccccc24)C3)CC1 [Example 127, (S)-1-(4-(7-(3-hydroxynaphthalen-1-yl)-2-((1-methylpyrrolidin-2-yl)methoxy)-5,6,7,8-tetrahydropyrido[3,4-d]pyrimidin-4-yl)piperazin-1-yl)prop-2-en-1-one] | 0.001 to 1 |

Same assay, conditions: Homo sapiens; NCI-H358 cells, 3 hours compound treatment; read-out: IC50 (pERK(Thr202/Tyr204) normalized with GAPDH)

| Structure (SMILES) | IC50 [µM] |
| --- | --- |
| CN(C)C/C=C/C(=O)N1CCN(c2nc(OC[C@@H]3CCCN3C)nc3c2CCN(c2cccc4ccccc24)C3)C[C@@H]1CC#N [Example 235, 2-((S)-1-((E)-4-(dimethylamino)but-2-enoyl)-4-(2-(((S)-1-methylpyrrolidin-2-yl)methoxy)-7-(naphthalen-1-yl)-5,6,7,8-tetrahydropyrido[3,4-d]pyrimidin-4-yl)piperazin-2-yl)acetonitrile] | 0.001 to 1 |
| C=CC(=O)N1CCN(c2nc(OC[C@@H]3C[C@H](F)CN3C)nc3c2CCN(c2cccc4ccccc24)C3)CC1CC#N (stereo partly drawn) [Example 221, 2-(1-acryloyl-4-(2-(((2S,4S)-4-fluoro-1-methylpyrrolidin-2-yl)methoxy)-7-(naphthalen-1-yl)-5,6,7,8-tetrahydropyrido[3,4-d]pyrimidin-4-yl)piperazin-2-yl)acetonitrile] | 0.001 to 1 |
| C=CC(=O)N1CCN(c2nc(OC[C@@H]3CCCN3CC)nc3c2CCN(c2cccc4ccccc24)C3)CC1CC#N (stereo partly drawn) [Example 233, 2-(1-acryloyl-4-(2-(((S)-1-ethylpyrrolidin-2-yl)methoxy)-7-(naphthalen-1-yl)-5,6,7,8-tetrahydropyrido[3,4-d]pyrimidin-4-yl)piperazin-2-yl)acetonitrile] | 0.001 to 1 |
| C=CC(=O)N1CCN(c2nc(OC[C@@H]3CCCN3C)nc3c2CCN(c2ccc(F)cc2C(F)(F)F)C3)CC1CC#N (stereo partly drawn) [Example 276, 2-(1-acryloyl-4-(7-(4-fluoro-2-(trifluoromethyl)phenyl)-2-(((S)-1-methylpyrrolidin-2-yl)methoxy)-5,6,7,8-tetrahydropyrido[3,4-d]pyrimidin-4-yl)piperazin-2-yl)acetonitrile] | 0.001 to 1 |
| C=CC(=O)N1CCN(c2nc(OC[C@@H]3CCCN3C)nc3c2CCN(c2cccc(F)c2C(F)(F)F)C3)CC1CC#N (stereo partly drawn) [Example 230, 2-(1-acryloyl-4-(7-(3-fluoro-2-(trifluoromethyl)phenyl)-2-(((S)-1-methylpyrrolidin-2-yl)methoxy)-5,6,7,8-tetrahydropyrido[3,4-d]pyrimidin-4-yl)piperazin-2-yl)acetonitrile] | 0.001 to 1 |
| C=CC(=O)N1CCN(c2nc(O[C@H](C)CN3CCOCC3)nc3c2CCN(c2cc(O)cc4ccccc24)C3)CC1 [Example 56, (R)-1-(4-(7-(3-hydroxynaphthalen-1-yl)-2-((1-morpholinopropan-2-yl)oxy)-5,6,7,8-tetrahydropyrido[3,4-d]pyrimidin-4-yl)piperazin-1-yl)prop-2-en-1-one] | 0.001 to 1 |
| C=CC(=O)N1CCN(c2nc(OC[C@@H]3CCCN3CCOC)nc3c2CCN(c2cccc4ccccc24)C3)CC1CC#N (stereo partly drawn) [Example 266, 2-(1-acryloyl-4-(2-(((S)-1-(2-methoxyethyl)pyrrolidin-2-yl)methoxy)-7-(naphthalen-1-yl)-5,6,7,8-tetrahydropyrido[3,4-d]pyrimidin-4-yl)piperazin-2-yl)acetonitrile] | 0.001 to 1 |
| C=CC(=O)N1CCN(c2nc(OC[C@@H]3CCCN3C)nc3c2CCN(c2c(C(F)(F)F)ccc4[nH]ncc24)C3)CC1 [Example 156, (S)-1-(4-(2-((1-methylpyrrolidin-2-yl)methoxy)-7-(5-(trifluoromethyl)-1H-indazol-4-yl)-5,6,7,8-tetrahydropyrido[3,4-d]pyrimidin-4-yl)piperazin-1-yl)prop-2-en-1-one] | 0.001 to 1 |
| C=CC(=O)N1CCN(c2nc(OCCCCN(C)C)nc3c2CCN(c2cc(O)cc4ccccc24)C3)CC1 [Example 40, 1-(4-(2-(4-(dimethylamino)butoxy)-7-(3-hydroxynaphthalen-1-yl)-5,6,7,8-tetrahydropyrido[3,4-d]pyrimidin-4-yl)piperazin-1-yl)prop-2-en-1-one] | 0.001 to 1 |
| C=CC(=O)N1CCN(c2nc(OC[C@@H]3CCCN3C)nc3c2CCN(c2cccc(Cl)c2C(F)(F)F)C3)CC1CC#N (stereo partly drawn) [Example 277, 2-(1-acryloyl-4-(7-(3-chloro-2-(trifluoromethyl)phenyl)-2-(((S)-1-methylpyrrolidin-2-yl)methoxy)-5,6,7,8-tetrahydropyrido[3,4-d]pyrimidin-4-yl)piperazin-2-yl)acetonitrile] | 0.001 to 1 |
| C=CC(=O)N1CCN(c2nc(OCCN3CCC(OC)CC3)nc3c2CCN(c2cc(O)cc4ccccc24)C3)CC1 [Example 108, 1-(4-(7-(3-hydroxynaphthalen-1-yl)-2-(2-(4-methoxypiperidin-1-yl)ethoxy)-5,6,7,8-tetrahydropyrido[3,4-d]pyrimidin-4-yl)piperazin-1-yl)prop-2-en-1-one] | 0.001 to 1 |
| C=CC(=O)N1CCN(c2nc(OC[C@H]3CCCN3C)nc3c2CCN(c2cccc(F)c2C(F)(F)F)C3)C[C@@H]1CC#N [Example 274, 2-((S)-1-acryloyl-4-(7-(3-fluoro-2-(trifluoromethyl)phenyl)-2-(((R)-1-methylpyrrolidin-2-yl)methoxy)-5,6,7,8-tetrahydropyrido[3,4-d]pyrimidin-4-yl)piperazin-2-yl)acetonitrile] | 0.001 to 1 |
| C=CC(=O)N1CCN(c2nc(O[C@H](C)CN3CCCCC3)nc3c2CCN(c2cc(O)cc4ccccc24)C3)CC1 [Example 75, (R)-1-(4-(7-(3-hydroxynaphthalen-1-yl)-2-((1-(piperidin-1-yl)propan-2-yl)oxy)-5,6,7,8-tetrahydropyrido[3,4-d]pyrimidin-4-yl)piperazin-1-yl)prop-2-en-1-one] | 0.001 to 1 |
